According to US20230167073A1 (Teijin Pharma Limited, priority 2020, published 2023):

The compounds below were run against T1, Human TRPC6 (Homo sapiens, UniProt Q9Y210) (assay: Evaluation of TRPC6 channel inhibitory activity (2), HEK293 cells with stably introduced human TRPC6, OAG stimulation, FLIPR tetra (Compound Nos. 1293 to 1405)). Conditions: HEK293 cells with stably introduced human TRPC6, OAG 50 μM/0.5% DMSO, read-out: Inhibitory activity (pIC50 class) (converted).
T1 construct: expressed in transfected cells
T1 sequence (Q9Y210 1-931): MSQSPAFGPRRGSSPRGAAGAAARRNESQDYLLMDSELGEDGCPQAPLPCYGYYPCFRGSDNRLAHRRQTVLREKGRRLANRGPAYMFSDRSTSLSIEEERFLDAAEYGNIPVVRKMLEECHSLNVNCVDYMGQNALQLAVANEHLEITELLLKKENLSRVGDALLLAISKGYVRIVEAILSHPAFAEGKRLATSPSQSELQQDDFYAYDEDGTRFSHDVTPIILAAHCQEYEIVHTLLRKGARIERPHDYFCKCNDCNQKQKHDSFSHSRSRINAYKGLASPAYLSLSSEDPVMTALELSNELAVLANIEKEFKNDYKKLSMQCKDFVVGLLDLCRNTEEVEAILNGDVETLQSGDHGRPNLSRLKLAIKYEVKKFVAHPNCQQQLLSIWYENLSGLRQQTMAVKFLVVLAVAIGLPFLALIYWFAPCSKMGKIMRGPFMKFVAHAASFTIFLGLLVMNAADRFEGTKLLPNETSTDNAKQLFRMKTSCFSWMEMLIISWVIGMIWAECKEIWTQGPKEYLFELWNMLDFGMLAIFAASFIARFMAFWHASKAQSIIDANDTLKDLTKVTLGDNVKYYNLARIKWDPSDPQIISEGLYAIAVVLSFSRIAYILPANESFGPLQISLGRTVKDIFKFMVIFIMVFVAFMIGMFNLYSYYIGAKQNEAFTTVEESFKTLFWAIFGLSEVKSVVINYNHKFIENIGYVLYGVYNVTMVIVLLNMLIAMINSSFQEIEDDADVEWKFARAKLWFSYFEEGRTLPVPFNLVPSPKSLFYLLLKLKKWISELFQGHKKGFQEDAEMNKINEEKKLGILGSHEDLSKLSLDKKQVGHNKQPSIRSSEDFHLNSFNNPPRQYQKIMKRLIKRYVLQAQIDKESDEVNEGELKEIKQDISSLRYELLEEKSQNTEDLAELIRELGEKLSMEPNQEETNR
Type: cell-based
Method: Evaluation of TRPC6 Channel Inhibitory Activity (2) (Compound Nos. 1293 to 1405)
The activity of the TRPC6 inhibitor was measured by stimulating HEK293 cells, in which human TRPC6 was stably introduced, with OAG (1-Oleoyl-2-acetyl-sn-glycerol, Miliipore Sigma, 06754), using the FLIPR tetra system. The cells were proliferated in a humid environment at 37° C. 5% CO2 using a growth medium (DMEM (Dulbecco's Modified Eagle's Medium) high glucose containing 10% fetal bovine serum, 1×PSGlu (penicillin-streptomycin glutamine), 1×NEAA (Non-essential amino acid), sodium pyruvate and 200 μg/mL hyglomycin. For cell subculture, the cells were proliferated to 70-90% confluence, and gently washed twice with PBS (phosphate-buffered saline) free of calcium and magnesium after removing the medium. Then, the cells were incubated at 37° C. for 5 minutes after adding trypsin (3 mL), peeled off by tapping the flask at the base of the hand, 7 mL of growth medium was added to inactivate trypsin, and then the cells were resuspended. Usually, the cells were separated every 2-3 days to become a cell density of ⅕. The day before evaluation, the cells were seeded in a poly-D-lysine (PDL) coated 384-well plate using a multi-channel pipette or multidrop at a cell density of 1.0-1.5×10^4 cells/25 μL/well. After culturing overnight in a PDL-coated 384 Blackwell plate, a fluorescent dye buffer was added first to the cells and the cells were cultured at room temperature for 90-120 minutes. For preparing 10 mL of fluorescent dye buffer, 9 mL of assay buffer, 1 mL of 10×PBX signal enhancer, and 10 μL of calcium indicator were mixed. Cells treated with the compounds of each level 25 minutes before the stimulation with OAG of TRPC6 agonist were incubated. OAG solution was prepared by adding OAG to assay buffer (Ca ringer solution base: 10 mM HEPES (4-(2-hydroxyethyl)-1-piperazine-ethanesulfonic acid), 4 mM MgCl2, 120 mM NaCl, 5 mM KCl, pH=7.2 (25° C.)+0.1% BSA+2 mM CaCl2)) to give an OAG concentration of 0.2 mM/2% DMSO. The final concentration of OAG added to the cells is 50 μM/0.5% DMSO. A volume of 12.5 μL of OAG solution was added, and activation of TRPC6 channel was measured using the FLIPR tetra system assaying the change in intracellular calcium level as an index. The 180 seconds imaging frame was defined as the background signal, and the subtraction of the background signal from the raw data was used as the fluorescence peak signal. Each fluorescence peak signal is standardized using an OAG-induced signal and buffer-induced signal as 100% and 0%, respectively. The inhibition rate obtained by plotting the peak signal after the addition of the compounds of each level was analyzed by a four-parameter logistic regression to quantify the inhibition rate in the logarithm of the inverse of the effective concentration which gives a 50% inhibition rate (pIC50). The intensity was expressed by the above-mentioned symbols (+, ++, +++).

SMILES | IC50
Cn1nc(-c2ccccn2)cc1Oc1cc(C#N)ccc1-c1ncc([C@@H](F)CN)cn1 [compound 1295, 4-[5-[(1R)-2-amino-1-fluoroethyl]pyrimidin-2-yl]-3-(2-methyl-5-pyridin-2-ylpyrazol-3-yl)oxybenzonitrile] | < 10 nM
Cn1nc(-c2ccccn2)cc1Oc1cc(C#N)ccc1-c1ncc([C@H](F)CN)cn1 [compound 1296, 4-[5-[(1S)-2-amino-1-fluoroethyl]pyrimidin-2-yl]-3-(2-methyl-5-pyridin-2-ylpyrazol-3-yl)oxybenzonitrile] | < 10 nM
Cc1cc(Oc2cc(C#N)ccc2-c2ccc3c(n2)CNC3)cc(N2CCOCC2)n1 [compound 1297, 4-(6,7-dihydro-5H-pyrrolo[3,4-b]pyridin-2-yl)-3-(2-methyl-6-morpholin-4-ylpyridin-4-yl)oxybenzonitrile] | 10 to 1000 nM
Cc1cc(Oc2cc(C#N)ccc2-c2ncc(CN)cn2)nc(N2CCOCC2)n1 [compound 1298, 4-[5-(aminomethyl)pyrimidin-2-yl]-3-(6-methyl-2-morpholin-4-ylpyrimidin-4-yl)oxybenzonitrile] | 10 to 1000 nM
Cc1cc(Oc2cc(C#N)ccc2-c2ccc([C@@H](F)CN)cn2)cc(N2CCOCC2)n1 [compound 1299, 4-[5-[(1R)-2-amino-1-fluoroethyl]pyridin-2-yl]-3-(2-methyl-6-morpholin-4-ylpyridin-4-yl)oxybenzonitrile] | < 10 nM
Cc1cc(Oc2cc(C#N)ccc2-c2ccc([C@H](F)CN)cn2)cc(N2CCOCC2)n1 [compound 1300, 4-[5-[(1S)-2-amino-1-fluoroethyl]pyridin-2-yl]-3-(2-methyl-6-morpholin-4-ylpyridin-4-yl)oxybenzonitrile] | < 10 nM

Continued, values first:

IC50 | SMILES
> 1000 nM | Cn1nc(C2CC2)cc1Oc1cc(F)ccc1-c1ncc(C(F)CN)cn1 (stereo in doubt) [compound 1381, (2S)-2-[2-[2-(5-cyclopropyl-2-methylpyrazol-3-yl)oxy-4-fluorophenyl]pyrimidin-5-yl]-2-fluoroethanamine]
> 1000 nM | Cn1nc(C2CC2)cc1Oc1cc(C#N)ccc1-c1ccc(C(F)(F)CN)nc1 [compound 1294, 4-[6-(2-amino-1,1-difluoroethyl)pyridin-3-yl]-3-(5-cyclopropyl-2-methylpyrazol-3-yl)oxybenzonitrile]

Each compound was assayed against T1, Human TRPC6 (assay: Evaluation of TRPC6 channel inhibitory activity (1), FLIPR Calcium 5 Assay Kit, OAG stimulation (Compound Nos. 1-1293)). Conditions: Human TRPC6 stably-expressing cells, OAG 30 μM, FLIPR Calcium 5 Assay Kit; read-out: Inhibitory activity (pIC50 class) (converted).
Type: cell-based
Method in brief: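 Readout is pIC50 from four-parameter logistic fitting of inhibition of the OAG-evoked (30 μM final) fluorescence calcium signal. Human TRPC6 stable cells are dye-loaded with probenecid, and compound is applied 20 min ahead of agonist.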

SMILES | IC50
N#Cc1ccc(-c2ncc(CCN)cn2)c([S+]([O-])c2cnnc(-c3ccccc3)c2)c1 (centres unmarked) [compound 1275, 4-[5-(2-aminoethyl)pyrimidin-2-yl]-3-(6-phenylpyridazin-4-yl)sulfinylbenzonitrile] | > 1000 nM
Cn1nc(-c2ccccc2)cc1Oc1cc(C#N)ncc1-c1ccc(CN)cn1 [compound 1278, 5-[5-(aminomethyl)pyridin-2-yl]-4-(2-methyl-5-phenylpyrazol-3-yl)oxypyridine-2-carbonitrile] | 10 to 1000 nM
Cn1nc(-c2ccccn2)cc1Oc1cc(C#N)cnc1-c1ncc(CN)cn1 [compound 1287, 6-[5-(aminomethyl)pyrimidin-2-yl]-5-(2-methyl-5-pyridin-2-ylpyrazol-3-yl)oxypyridine-3-carbonitrile] | > 1000 nM
Cn1nc(-c2ccccn2)cc1Oc1cc(C#N)cnc1-c1ccc(CN)cc1 [compound 1288, 6-[4-(aminomethyl)phenyl]-5-(2-methyl-5-pyridin-2-ylpyrazol-3-yl)oxypyridine-3-carbonitrile] | > 1000 nM
Cn1nc(-c2ccccc2)cc1Oc1cc(Cl)ncc1-c1ccc(CCN)cn1 [compound 1290, 2-[6-[6-chloro-4-(2-methyl-5-phenylpyrazol-3-yl)oxypyridin-3-yl]pyridin-3-yl]ethanamine] | 10 to 1000 nM
Cn1nc(-c2ccccc2)cc1Oc1cc(Cl)ncc1-c1ccc(CN)cn1 [compound 1291, [6-[6-chloro-4-(2-methyl-5-phenylpyrazol-3-yl)oxypyridin-3-yl]pyridin-3-yl]methanamine] | > 1000 nM
Cn1nc(-c2ccccc2)cc1Oc1nc(Cl)ccc1-c1ccc(CN)cn1 [compound 1293, [6-[6-chloro-2-(2-methyl-5-phenylpyrazol-3-yl)oxypyridin-3-yl]pyridin-3-yl]methanamine] | 10 to 1000 nM

Continued, values first:

IC50 | SMILES
< 10 nM | Cn1nc(-c2ccccn2)cc1Oc1nc(C#N)ccc1-c1ccc(CCN)cn1 [compound 1280, 5-[5-(2-aminoethyl)pyridin-2-yl]-6-(2-methyl-5-pyridin-2-ylpyrazol-3-yl)oxypyridine-2-carbonitrile]
10 to 1000 nM | Cn1nc(C2CC2)cc1Oc1nc(C#N)ccc1-c1ncc(CCN)cn1 [compound 1281, 5-[5-(2-aminoethyl)pyrimidin-2-yl]-6-(5-cyclopropyl-2-methylpyrazol-3-yl)oxypyridine-2-carbonitrile]
10 to 1000 nM | Cc1cc(Oc2nc(C#N)ccc2-c2ccc(CCN)cn2)cc(N2CCCC2)n1 [compound 1282, 5-[5-(2-aminoethyl)pyridin-2-yl]-6-(2-methyl-6-pyrrolidin-1-ylpyridin-4-yl)oxypyridine-2-carbonitrile]
> 1000 nM | Cn1nc(-c2ccccn2)cc1Oc1nc(C#N)ccc1-c1ncc(CN)cn1 [compound 1283, 5-[5-(aminomethyl)pyrimidin-2-yl]-6-(2-methyl-5-pyridin-2-ylpyrazol-3-yl)oxypyridine-2-carbonitrile]
10 to 1000 nM | Cc1cc(Oc2nc(C#N)ccc2-c2ccc(CCN)cn2)cc(N2CCOCC2)n1 [compound 1284, 5-[5-(2-aminoethyl)pyridin-2-yl]-6-(2-methyl-6-morpholin-4-ylpyridin-4-yl)oxypyridine-2-carbonitrile]
> 1000 nM | Cc1cc(Oc2nc(C#N)ccc2-c2ncc(CN)cn2)cc(N2CCOCC2)n1 [compound 1285, 5-[5-(aminomethyl)pyrimidin-2-yl]-6-(2-methyl-6-morpholin-4-ylpyridin-4-yl)oxypyridine-2-carbonitrile]
> 1000 nM | Cc1cc(Oc2nc(C#N)ccc2-c2ncc(CN)cn2)cc(-c2ccccn2)n1 [compound 1286, 5-[5-(aminomethyl)pyrimidin-2-yl]-6-(2-methyl-6-pyridin-2-ylpyridin-4-yl)oxypyridine-2-carbonitrile]
10 to 1000 nM | Cn1nc(-c2ccccc2)cc1Oc1nc(Cl)ccc1-c1ccc(CCN)cn1 [compound 1292, 2-[6-[6-chloro-2-(2-methyl-5-phenylpyrazol-3-yl)oxypyridin-3-yl]pyridin-3-yl]ethanamine]
